Measured values reported in ChEMBL document CHEMBL4616595, “Targeted suppression of metastasis regulatory transcription factor SOX2 in various cancer cell lines using a sequence-specific designer pyrrole-imidazole polyamide” (Bioorg Med Chem, 2020).
The source made the active and inactive calls.

Assays:
SOX2 promoter DNA [1] = assay: Binding affinity to SOX2 promoter 5'-CTTTGTT-3' DNA in human SW620 cells assessed as down regulation of JAG1 gene expression at 2 uM incubated for 48 hrs by Cy3-labelled cRNA-based microarray analysis; type: cell-based; settings: SW-620
SOX2 promoter DNA [2] = assay: Binding affinity to SOX2 promoter 5'-CTTTGTT-3' DNA in human DU145 cells assessed as reduction in SOX2 mRNA expression incubated for 48 hrs by qRT-PCR analysis; type: cell-based; settings: DU-145
SOX2 promoter DNA [3] = assay: Binding affinity to SOX2 promoter 5'-CTTTGTT-3' DNA in human SW620 cells assessed as downregulation SALL4 mRNA expression incubated for 48 hrs by qRT-PCR analysis; type: cell-based; settings: SW-620
U2OS [4] = assay: Cell cycle arrest in human U2OS cells assessed as reduction in accumulation at G2/M phase at 2 uM to 5 uM after 48 hrs by propidium iodide staining based flow cytometry analysis; type: functional
SOX2 promoter DNA [5] = assay: Binding affinity to SOX2 promoter 5'-CTTTGTT-3' DNA in human SW620 cells assessed as down regulation of POU5F1 gene expression at 2 uM incubated for 48 hrs by Cy3-labelled cRNA-based microarray analysis; type: cell-based; settings: SW-620
SOX2 promoter DNA [6] = assay: Binding affinity to SOX2 promoter 5'-CTTTGTT-3' DNA in mouse Wehi3 cells assessed as reduction in SOX2 mRNA expression incubated for 48 hrs by qRT-PCR analysis; type: cell-based
MCF7 [7] = assay: Cell cycle arrest in human MCF7 cells assessed as increase in accumulation at sub-G1/G1 phase at 2 uM to 5 uM after 48 hrs by propidium iodide staining based flow cytometry analysis; type: functional
SOX2 promoter DNA [8] = assay: Binding affinity to SOX2 promoter 5'-CTTTGTT-3' DNA in human SW620 cells assessed as down regulation of CDH2 gene expression at 2 uM incubated for 48 hrs by Cy3-labelled cRNA-based microarray analysis; type: cell-based; settings: SW-620
SOX2 promoter DNA [9] = assay: Binding affinity to SOX2 promoter 5'-CTTTGTT-3' DNA in human SW620 cells assessed as downregulation DVL2 mRNA expression incubated for 48 hrs by qRT-PCR analysis; type: cell-based; settings: SW-620
NHDF = assay: Cytotoxicity against HDF cells assessed as effect on cell viability measured after 48 hrs by MTT assay; type: cell-based; settings: human
SW-620 [10] = assay: Up regulation of FASL mRNA expression in human SW620 cells incubated for 48 hrs by qRT-PCR analysis; type: functional, cell-based
MCF7 [11] = assay: Cell cycle arrest in human MCF7 cells assessed as reduction in accumulation at G2/M phase at 2 uM to 5 uM after 48 hrs by propidium iodide staining based flow cytometry analysis; type: functional
SOX2 promoter DNA [12] = assay: Binding affinity to SOX2 promoter 5'-CTTTGTT-3' DNA in human SW620 cells assessed as reduction in SOX2 mRNA expression incubated for 48 hrs by qRT-PCR analysis; type: cell-based; settings: SW-620
MKN-45 = assay: Cell cycle arrest in human MKN45 cells assessed as reduction in accumulation at S phase at 2 uM to 5 uM after 48 hrs by propidium iodide staining based flow cytometry analysis; type: functional
MCF7 [13] = assay: Cell cycle arrest in human MCF7 cells assessed as reduction in accumulation at S phase at 2 uM to 5 uM after 48 hrs by propidium iodide staining based flow cytometry analysis; type: functional
SW-620 [14] = assay: Up regulation of FAS mRNA expression in human SW620 cells incubated for 48 hrs by qRT-PCR analysis; type: functional, cell-based
SOX2 promoter DNA [15] = assay: Binding affinity to SOX2 promoter 5'-CTTTGTT-3' DNA in human SW620 cells assessed as downregulation beta-catenin mRNA expression incubated for 48 hrs by qRT-PCR analysis; type: cell-based; settings: SW-620
SW-620 [16] = assay: Cell cycle arrest in human SW620 cells assessed as reduction in accumulation at S phase at 2 uM to 5 uM after 48 hrs by propidium iodide staining based flow cytometry analysis; type: functional
SOX2 promoter DNA [17] = assay: Binding affinity to SOX2 promoter 5'-CTTTGTT-3' DNA in human SW620 cells assessed as down regulation of NFKB1 mRNA expression at 2 uM incubated for 48 hrs by qRT-PCR analysis; type: cell-based; settings: SW-620
SOX2 promoter DNA [18] = assay: Binding affinity to SOX2 promoter 5'-CTTTGTT-3' DNA in mouse B16 cells assessed as reduction in SOX2 mRNA expression incubated for 48 hrs by qRT-PCR analysis; type: cell-based
SOX2 promoter DNA [19] = assay: Binding affinity to SOX2 promoter 5'-CTTTGTT-3' DNA in human SW620 cells assessed as down regulation of […] mRNA expression at 2 uM incubated for 48 hrs by qRT-PCR analysis; type: cell-based; settings: SW-620
SOX2 promoter DNA [20] = assay: Binding affinity to SOX2 promoter 5'-CTTTGTT-3' DNA in human SW620 cells assessed as down regulation of ZEB2 mRNA expression at 2 uM incubated for 48 hrs by qRT-PCR analysis; type: cell-based; settings: SW-620
SOX2 promoter DNA [21] = assay: Binding affinity to SOX2 promoter 5'-CTTTGTT-3' DNA in human MKN45 cells assessed as reduction in SOX2 mRNA expression incubated for 48 hrs by qRT-PCR analysis; type: cell-based; settings: MKN-45
U2OS [22] = assay: Cytotoxicity against human U2OS cells assessed as reduction in cell viability incubated for 48 hrs by MTT assay; type: functional, cell-based
SOX2 promoter DNA [23] = assay: Binding affinity to SOX2 promoter 5'-CTTTGTT-3' DNA in human SW620 cells assessed as down regulation of Cyclin D1 gene expression at 2 uM incubated for 48 hrs by Cy3-labelled cRNA-based microarray analysis; type: cell-based; settings: SW-620
SW-620 [24] = assay: Up regulation of TP73 mRNA expression in human SW620 cells incubated for 48 hrs by qRT-PCR analysis; type: functional, cell-based
SOX2 promoter DNA [25] = assay: Binding affinity to SOX2 promoter 5'-CTTTGTT-3' DNA in human MKN45 cells assessed as reduction in SOX2 protein level incubated for 48 hrs by immunostaining based FACS analysis; type: cell-based; settings: MKN-45
SOX2 promoter DNA [26] = assay: Binding affinity to SOX2 promoter 5'-CTTTGTT-3' DNA in human SW620 cells assessed as down regulation of VIM gene expression at 2 uM incubated for 48 hrs by Cy3-labelled cRNA-based microarray analysis; type: cell-based; settings: SW-620
SOX2 promoter DNA [27] = assay: Binding affinity to SOX2 promoter 5'-CTTTGTT-3' DNA in human SW620 cells assessed as down regulation of stemness associated BMP-4 mRNA expression at 2 uM incubated for 48 hrs by qRT-PCR analysis; type: cell-based; settings: SW-620
SW-620 [28] = assay: Up regulation of PUMA mRNA expression in human SW620 cells incubated for 48 hrs by qRT-PCR analysis; type: functional, cell-based
SOX2 promoter DNA [29] = assay: Binding affinity to SOX2 promoter 5'-CTTTGTT-3' DNA in mouse EG7 cells assessed as reduction in SOX2 mRNA expression incubated for 48 hrs by qRT-PCR analysis; type: cell-based
SOX2 promoter DNA [30] = assay: Binding affinity to SOX2 promoter 5'-CTTTGTT-3' DNA in human SW620 cells assessed as downregulation DVL3 mRNA expression incubated for 48 hrs by qRT-PCR analysis; type: cell-based; settings: SW-620
SOX2 promoter DNA [31] = assay: Binding affinity to SOX2 promoter 5'-CTTTGTT-3' DNA in human SW620 cells assessed as down regulation of Cyclin D1 mRNA expression at 2 uM incubated for 48 hrs by qRT-PCR analysis; type: cell-based; settings: SW-620

Measured: Activity

CC(=O)Nc1cc(C(=O)Nc2cc(C(=O)Nc3cc(C(=O)NCCC(=O)Nc4cn(C)c(C(=O)Nc5cc(C(=O)NCCCC(=O)Nc6cc(C(=O)Nc7cc(C(=O)NCCC(=O)Nc8cc(C(=O)Nc9cc(C(=O)Nc%10cn(C)c(C(=O)NCCCN(C)C)n%10)n(C)c9)n(C)c8)n(C)c7)n(C)c6)n(C)c5)n4)n(C)c3)n(C)c2)n(C)c1
active: SOX2 promoter DNA [1] | SOX2 promoter DNA [2] | SOX2 promoter DNA [3] | U2OS [4] | SOX2 promoter DNA [5] | SOX2 promoter DNA [6] | MCF7 [7] | SOX2 promoter DNA [8] | SOX2 promoter DNA [9] | SW-620 [10] | MCF7 [11] | SOX2 promoter DNA [12] | MKN-45 | MCF7 [13] | SW-620 [14] | SOX2 promoter DNA [15] | SW-620 [16] | SOX2 promoter DNA [17] | SOX2 promoter DNA [18] | SOX2 promoter DNA [19] | SOX2 promoter DNA [20] | SOX2 promoter DNA [21] | U2OS [22] Dose-dependent effect | SOX2 promoter DNA [23] | SW-620 [24] | SOX2 promoter DNA [25] Dose-dependent effect | SOX2 promoter DNA [26] | SOX2 promoter DNA [27] | SW-620 [28] | SOX2 promoter DNA [29] | SOX2 promoter DNA [30] | SOX2 promoter DNA [31]
Non-Toxic: NHDF
